Test results: paper PMC12552937, “Kinetic mechanisms of electron bifurcation with electron transfer flavoprotein, NADH, butyryl-CoA dehydrogenase, and ferredoxin reveal a semiquinone cycle” (The Journal of Biological Chemistry, 2025)

Columns and labels:
[1] = molecular target: T1, Bcd (butyryl-CoA dehydrogenase) (Acidaminococcus fermentans, UniProt D2RL84); assay: static titration, double-beam UV-visible difference absorbance at […] nm; format: binding
T1 construct: gene Acfer_1477; recombinant from E. coli, pET-11a, no tag told; homotetramer with one delta-FAD per subunit
T1 sequence (D2RL84 1-383): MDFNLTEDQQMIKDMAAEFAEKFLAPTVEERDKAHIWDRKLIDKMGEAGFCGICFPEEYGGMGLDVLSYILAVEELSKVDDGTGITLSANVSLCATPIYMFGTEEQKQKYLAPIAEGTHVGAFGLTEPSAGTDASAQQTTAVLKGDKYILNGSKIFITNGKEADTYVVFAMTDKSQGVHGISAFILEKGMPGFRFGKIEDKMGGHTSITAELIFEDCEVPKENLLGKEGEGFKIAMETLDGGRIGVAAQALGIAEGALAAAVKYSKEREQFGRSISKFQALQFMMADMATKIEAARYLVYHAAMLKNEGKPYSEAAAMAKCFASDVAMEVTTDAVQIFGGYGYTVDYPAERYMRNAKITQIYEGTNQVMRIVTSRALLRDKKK

[2] = molecular target: T2, EtfAB (electron transfer flavoprotein) (Acidaminococcus fermentans, UniProt D2RIQ2); assay: anaerobic stopped-flow, beta-FAD reduction and charge-transfer complex at […] nm; format: biochemical; conditions: 40 μM EtfAB + 40 μM NADH, 50 mM potassium phosphate pH 7.0, 4 °C; beta-FAD site
T2 construct: gene Acfer_0555; recombinant from E. coli, pET-11a, no tag told; heterodimer with alpha-FAD (EtfA) and beta-FAD (EtfB); with Electron transfer flavoprotein subunit alpha
T2 sequence (D2RIQ2 1-263): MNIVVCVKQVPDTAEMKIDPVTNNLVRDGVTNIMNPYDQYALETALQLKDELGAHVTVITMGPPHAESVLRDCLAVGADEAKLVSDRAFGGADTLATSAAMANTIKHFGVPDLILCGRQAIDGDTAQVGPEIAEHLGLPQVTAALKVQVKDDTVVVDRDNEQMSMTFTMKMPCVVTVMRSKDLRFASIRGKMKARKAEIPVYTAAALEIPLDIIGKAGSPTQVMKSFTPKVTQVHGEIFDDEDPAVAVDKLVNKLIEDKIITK
T2 sequence (D2RIQ3 1-340 partner): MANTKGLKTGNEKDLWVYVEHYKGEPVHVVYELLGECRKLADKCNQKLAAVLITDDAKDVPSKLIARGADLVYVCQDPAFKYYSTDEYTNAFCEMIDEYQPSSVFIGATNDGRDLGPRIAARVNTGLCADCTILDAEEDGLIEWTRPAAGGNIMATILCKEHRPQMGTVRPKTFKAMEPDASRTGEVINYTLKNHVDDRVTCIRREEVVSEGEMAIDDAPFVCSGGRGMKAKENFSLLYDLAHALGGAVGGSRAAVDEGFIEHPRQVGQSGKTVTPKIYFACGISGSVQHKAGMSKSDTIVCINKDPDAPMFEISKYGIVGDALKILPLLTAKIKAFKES

| Structure (SMILES) | Kd [1] [µM] | anaerobic stopped-flow, beta-FAD reduction and charge-transfer complex at 650 nm [2] |
| --- | --- | --- |
| C/C=C/C(=O)SCCNC(=O)CCNC(=O)[C@H](O)C(C)(C)COP(=O)(O)OP(=O)(O)OC[C@H]1O[C@@H](n2cnc3c(N)ncnc32)[C@H](O)[C@@H]1OP(=O)(O)O [crotonyl-CoA] | 95 ± 6 | – |
| NC(=O)C1=CN([C@@H]2O[C@H](COP(=O)(O)OP(=O)(O)OC[C@H]3O[C@@H](n4cnc5c(N)ncnc54)[C@H](O)[C@@H]3O)[C@@H](O)[C@H]2O)C=CC1 [NADH] | – | mixing EtfAB with a stoichiometric amount NADH resulted in a rapid reduction of β-FAD |
